Reference: patent US9745289B2, “Aldosterone synthase inhibitors” (Boehringer Ingelheim International GmbH, priority 2014, dated 2017)

Biological target: cortisol synthase (CYP11B1) (Macaca fascicularis, UniProt A0A2K5ULY1)
Assay: Inhibition of Cortisol Synthesis
Assay type: biochemical, cynomolgus monkey
Conditions: cynomolgus adrenal gland mitochondria; 150 units of CYP11B1, 11-deoxycortisol as substrate, cortisol measured as product
How it was run: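 Cynomolgus adrenal mitochondria as enzyme source (1 unit = 1 pmol product/h); 150 units CYP11B1 with 11-deoxycortisol substrate in 100 mM potassium phosphate pH 7.4, 1% DMSO, started with 1 mM NADPH, 90 min at 37 °C. Cortisol quantified by mass spectrometry; no-NADPH blank as 0%, no-compound as 100% activity.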

Compared with `CN(C)C(=O)COCc1cncc(C2COc3c(C#N)cccc3O2)c1` (single isomer, unassigned) [Cpd 42A, 2-[5-(5-Cyano-2,3-dihydro-benzo[1,4]dioxin-2-yl)-pyridin-3-ylmethoxy]-N,N-dimethyl-acetamide], `CS(=O)(=O)COc1cncc(C2COc3c(C#N)cccc3O2)c1` (single isomer, unassigned) [Cpd 44A, 2-(5-Methanesulfonylmethoxy-pyridin-3-yl)-2,3-dihydro-benzo[1,4]dioxine-5-carbonitrile] is 8.2-fold lower in IC50: 18 µM for the first, 2.2 µM for the second. The second is the more potent here.

Compared with `CN(C)C(=O)COCc1cncc(C2COc3c(C#N)cccc3O2)c1` (single isomer, unassigned) [Cpd 42B, 2-[5-(5-Cyano-2,3-dihydro-benzo[1,4]dioxin-2-yl)-pyridin-3-ylmethoxy]-N,N-dimethyl-acetamide], `CS(=O)(=O)COc1cncc(C2COc3c(C#N)cccc3O2)c1` (single isomer, unassigned) [Cpd 44B, 2-(5-Methanesulfonylmethoxy-pyridin-3-yl)-2,3-dihydro-benzo[1,4]dioxine-5-carbonitrile] is 10-fold higher in IC50: 1.3 µM for the first, 13 µM for the second. The first is the more potent here.

Going from `N#Cc1cccc2c1OCC(c1cncc(CC(=O)N3CCOCC3)c1)O2` (single isomer, unassigned) [Cpd 43A, 2-[5-(2-Morpholin-4-yl-2-oxo-ethyl)-pyridin-3-yl]-2,3-dihydro-benzo[1,4]dioxine-5-carbonitrile] to `NC(=O)c1cccc2c1OCC(c1cncc(OC3CCOCC3)c1)O2` (single isomer, unassigned) [Cpd 47A, 2-[5-(Tetrahydro-pyran-4-yloxy)-pyridin-3-yl]-2,3-dihydro-benzo[1,4]dioxine-5-carboxylic acid amide], the IC50 falls from 22 µM to 8.5 µM (2.6-fold). The second is the more potent here.

First: N#Cc1cccc2c1OCC(c1cncc(CC(=O)N3CCOCC3)c1)O2 (single isomer, unassigned) [Cpd 43B, 2-[5-(2-Morpholin-4-yl-2-oxo-ethyl)-pyridin-3-yl]-2,3-dihydro-benzo[1,4]dioxine-5-carbonitrile]
Second: NC(=O)c1cccc2c1OCC(c1cncc(OC3CCOCC3)c1)O2 (single isomer, unassigned) [Cpd 47B, 2-[5-(Tetrahydro-pyran-4-yloxy)-pyridin-3-yl]-2,3-dihydro-benzo[1,4]dioxine-5-carboxylic acid amide]
The IC50 of the first is higher: > 30 µM for the first, 1.2 µM for the second. The second is the more potent here.

First: CCOc1cncc(C2COc3c(cccc3C(N)=O)O2)c1 (single isomer, unassigned) [Cpd 45A, 2-(5-ethoxy-pyridin-3-yl)-2,3-dihydro-benzo[1,4]dioxine-5-carboxylic acid amide]
Second: NC(=O)c1cccc2c1OCC(c1cncc(O[C@@H]3CCOC3)c1)O2 (single isomer, unassigned) [Cpd 46A]
The IC50 of the first is 33-fold lower: 0.21 µM for the first, 7 µM for the second.

Going from `CCOc1cncc(C2COc3c(cccc3C(N)=O)O2)c1` (single isomer, unassigned) [Cpd 45B, 2-(5-ethoxy-pyridin-3-yl)-2,3-dihydro-benzo[1,4]dioxine-5-carboxylic acid amide] to `NC(=O)c1cccc2c1OCC(c1cncc(O[C@@H]3CCOC3)c1)O2` (single isomer, unassigned) [Cpd 46B], the IC50 rises from 0.28 µM to 4.2 µM (15-fold).

`CC(C)C(=O)N1CCC(Oc2cncc(C3COc4c(cccc4C(N)=O)O3)c2)CC1` (single isomer, unassigned) [Cpd 48A, 2-[5-(1-isobutyryl-piperidin-4-yloxy)-pyridin-3-yl]-2,3-dihydro-benzo[1,4]dioxine-5-carboxylic acid amide] and `NC(=O)c1cccc2c1OCC(c1cncc(C(O)C(F)(F)F)c1)O2` (single isomer, unassigned) [Cpd 49AA, 2-[5-(2,2,2-Trifluoro-1-hydroxy-ethyl)-pyridin-3-yl]-2,3-dihydro-benzo[1,4]dioxine-5-carboxylic acid amide] are within 1.5-fold of each other in IC50: 3.1 µM for the first, 3.2 µM for the second.

For `CC(C)C(=O)N1CCC(Oc2cncc(C3COc4c(cccc4C(N)=O)O3)c2)CC1` (single isomer, unassigned) [Cpd 48B, 2-[5-(1-isobutyryl-piperidin-4-yloxy)-pyridin-3-yl]-2,3-dihydro-benzo[1,4]dioxine-5-carboxylic acid amide], the IC50 was 0.24 µM.
